From the supplement of paper PMC9938120

What was measured:
Test in all cases: drug sensitivity score (DSS3, normalised partial AUC of % inhibition dose-response) (DSS (score)); higher = more sensitive (stronger inhibition of viability); extreme values may be limits of the assay
Conditions in all cases: 72 h; library: FO5A; assay format: 2D, 384-well, CellTiter-Glo
FMOC03 = system: FMOC03 (patient-derived mucinous ovarian cancer cells)
Method in brief: (§1)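 Cells were dispensed onto 384-well flat clear-bottom plates already holding compounds at five concentrations over a 10,000-fold range, using patient-derived ovarian cancer cells at passage under 10. Incubation lasted 72 h at 37 °C in 5% CO2, after which CellTiter-Glo viability data were processed in Breeze. Higher drug sensitivity scores, each a partial area under the percent-inhibition dose-response curve divided by the log of the upper asymptote, mean more sensitive cells.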

FMOC11 = system: FMOC11 (patient-derived high-grade serous ovarian cancer cells)
Method in brief: as §1

FMOC22 = system: FMOC22 (patient-derived mucinous ovarian cancer cells)
Method in brief: as §1

FMOC06 = system: FMOC06 (patient-derived mucinous ovarian cancer cells)
Method in brief: as §1

FMOC28 = system: FMOC28 (patient-derived low-grade serous ovarian cancer cells)
Method in brief: as §1

FMOC02_1 = system: FMOC02_1 (patient-derived low-grade serous ovarian cancer cells)
Method in brief: as §1

FMOC02_2 = system: FMOC02_2 (patient-derived low-grade serous ovarian cancer cells)
Method in brief: as §1

FMOC04 = system: FMOC04 (patient-derived high-grade serous ovarian cancer cells)
Method in brief: as §1

FMOC17 = system: FMOC17 (patient-derived low-grade serous ovarian cancer cells)
Method in brief: as §1

FMOC02_3 = system: FMOC02_3 (patient-derived low-grade serous ovarian cancer cells)
Method in brief: as §1

FMOC27 = system: FMOC27 (patient-derived low-grade serous ovarian cancer cells)
Method in brief: as §1

FMOC09 = system: FMOC09 (patient-derived high-grade serous ovarian cancer cells)
Method in brief: as §1

FMOC14 = system: FMOC14 (patient-derived high-grade serous ovarian cancer cells)
Method in brief: as §1

FMOC25_2 = system: FMOC25_2 (patient-derived low-grade serous ovarian cancer cells)
Method in brief: as §1

FMOC24 = system: FMOC24 (patient-derived high-grade serous ovarian cancer cells)
Method in brief: as §1

Compound | drug sensitivity score (FMOC03) | drug sensitivity score (FMOC11) | drug sensitivity score (FMOC22) | drug sensitivity score (FMOC06) | drug sensitivity score (FMOC28) | drug sensitivity score (FMOC02_1) | drug sensitivity score (FMOC02_2) | drug sensitivity score (FMOC04) | drug sensitivity score (FMOC17) | drug sensitivity score (FMOC02_3) | drug sensitivity score (FMOC27) | drug sensitivity score (FMOC09) | drug sensitivity score (FMOC14) | drug sensitivity score (FMOC25_2) | drug sensitivity score (FMOC24)
O=C(Nc1ccc(OC(F)(F)Cl)cc1)c1cnc(N2CC[C@@H](O)C2)c(-c2cc[nH]n2)c1 [Asciminib] | 0 | 0 | 0 | 1 | 0 | 0 | 1 | 0 | 0 | 0 | 0 | 0 | 0 | 0.1 | 0.9
CC1(C)C(C(=O)Nc2ccc(S(=O)(=O)c3ccc(NC(=O)C4C(C)(C)C4(C)C)cc3)cc2)C1(C)C [BRD7116] | 0.5 | 2.2 | 0 | 0.8 | 1 | 0 | 0.1 | 0 | 1.4 | 3.7 | 0 | 0 | 0 | 0 | 1.5
COc1cc(N2CCC(N3CCN(C)CC3)CC2)ccc1Nc1ncc(Cl)c(Nc2ccccc2P(C)(C)=O)n1 [Brigatinib] | 0.9 | 1 | 0.5 | 4.7 | 4.8 | 4.4 | 4.3 | 1.75 | 2.9 | 3.7 | 1.7 | 3.8 | 1.7 | 6.4 | 2.8
Cc1nc2cccc(N)c2c(=O)n1C1CCC(=O)NC1=O (stereo not given) [CC122] | 0 | 0 | 0 | 0 | 2.5 | 0 | 0 | 0 | 0.5 | 0.4 | 0.1 | 0 | 0.2 | 0 | 0
COc1cc(C)[nH]c(=O)c1CNC(=O)c1c(C)n([C@H](C)C2CCOCC2)c2ccccc12 [CPI-360] | 0 | 0 | 0 | 0 | 3.4 | 0 | 0.1 | 0.05 | 0 | 0 | 0 | 0 | 0 | 0 | 0
CNC(=O)c1ccc(-c2cnc3ncc(Cc4ccc5ncccc5c4)n3n2)cc1F [Capmatinib] | 0 | 0 | 0 | 0 | 0 | 0 | 0 | 0 | 0 | 0 | 0.5 | 0 | 0.1 | 0 | 0
CC[C@@](C)(Nc1ccnc(-c2c[nH]c3ncccc23)n1)C(=O)NCC(F)(F)F [Decernotinib] | 0 | 0 | 0 | 2.6 | 0 | 3.3 | 1.7 | 0 | 0 | 0.4 | 0 | 0 | 0 | 0 | 0
CC(C)(O)CNc1nc(Nc2ccnc(C(F)(F)F)c2)nc(-c2cccc(C(F)(F)F)n2)n1 [Enasidenib] | 1.4 | 0 | 0 | 0 | 4.4 | 1.5 | 2.5 | 0 | 2.3 | 0 | 0 | 0 | 0 | 1.7 | 0
C[C@@H]1CN(C(=O)c2ccc(NC(=O)c3cc(O[C@H](C)c4c(Cl)ccc(F)c4Cl)c(N)nn3)cc2)C[C@H](C)N1 [Ensartinib] | 0 | 0.2 | 0.1 | 3 | 2.2 | 4.3 | 0.4 | 0.05 | 1.5 | 1.6 | 0 | 1.1 | 0 | 0.8 | 0.7
CN1CCN(c2ccc(C(=O)Nc3n[nH]c4ccc(Cc5cc(F)cc(F)c5)cc34)c(NC3CCOCC3)c2)CC1 [Entrectinib] | 0 | 1.1 | 0 | 1.4 | 2.2 | 0.3 | 1.5 | 0.1 | 1.9 | 2.7 | 0 | 0.3 | 0 | 2.7 | 0
COc1cc(OC)cc(N(CCNC(C)C)c2ccc3ncc(-c4cnn(C)c4)nc3c2)c1 [Erdafitinib] | 0 | 0.7 | 0 | 0 | 0 | 0 | 0 | 0 | 0.3 | 2.1 | 0 | 0 | 0 | 0.4 | 1.1
C[C@H]1CN(C2COC2)CCN1c1ccc(Nc2cc(-c3ccnc(N4CCn5c(cc6c5CC(C)(C)C6)C4=O)c3CO)cn(C)c2=O)nc1 [GDC-0853] | 0 | 0 | 0 | 0 | 0.4 | 0 | 0 | 0 | 0 | 0 | 0 | 0 | 0 | 0 | 0
O[C@H](C[C@H]1c2c(F)cccc2-c2cncn21)[C@H]1CC[C@H](O)CC1 [GDC-0919] | 0.1 | 1.7 | 0.4 | 1 | 2.2 | 0.2 | 3.6 | 0 | 0.8 | 2.1 | 2 | 0.3 | 0.8 | 0.1 | 0.55
CCc1nc(C(N)=O)c(Nc2ccc(N3CCC(N4CCN(C)CC4)CC3)c(OC)c2)nc1NC1CCOCC1 [Gilteritinib] | 0.1 | 1.9 | 0.1 | 4.5 | 0.5 | 4.2 | 3.2 | 1.1 | 1.7 | 4.5 | 0 | 1.7 | 0 | 4.4 | 0.1
COCCNCc1ccc(-c2cc3nccc(Oc4ccc(NC(=S)NC(=O)Cc5ccc(F)cc5)cc4F)c3s2)nc1 [Glesatinib] | 0 | 0 | 0 | 0 | 2.9 | 0 | 0 | 0 | 0 | 0 | 0 | 0 | 0.2 | 0 | 0.6
CCN1CCN(c2ccc(Nc3cc(N(C)C(=O)Nc4c(Cl)c(OC)cc(OC)c4Cl)ncn3)cc2)CC1 [Infigratinib] | 0 | 0 | 0 | 0 | 0.5 | 0 | 0 | 0 | 0 | 0 | 0 | 0 | 0 | 0 | 0.05
N#Cc1ccnc(N2C(=O)CC[C@H]2C(=O)N(c2cncc(F)c2)[C@H](C(=O)NC2CC(F)(F)C2)c2ccccc2Cl)c1 [Ivosidenib] | 0 | 0 | 0 | 0 | 2.6 | 0.2 | 0 | 0 | 0.3 | 0 | 0 | 0 | 0 | 0 | 0.2
Nc1cc(COc2c(Cl)cc(C[C@H](N)C(=O)O)cc2Cl)c2oc(-c3ccccc3)nc2c1 [JPH203] | 0 | 0 | 0 | 0.4 | 0 | 0 | 0 | 0 | 0 | 0 | 0 | 0 | 0 | 0 | 0
CC(C)NC(=O)COc1cccc(-c2nc(Nc3ccc4[nH]ncc4c3)c3ccccc3n2)c1 [KD025] | 0 | 1.6 | 0 | 1.1 | 2.4 | 5.4 | 1.6 | 3.55 | 4.5 | 6.2 | 0 | 0.2 | 2.7 | 4.4 | 10.4
O=C(Nc1cnn2ccc(N3CCC[C@@H]3c3cc(F)ccc3F)nc12)N1CC[C@H](O)C1 [Larotrectinib] | 0 | 0 | 0 | 0 | 0 | 0 | 0 | 0 | 0 | 0 | 0 | 0 | 0 | 0 | 0
O=C(CCNC(=O)c1ccc(OC(F)(F)F)cc1)N[C@@H]1CCCc2ccccc21 [ML390] | 4.6 | 3.6 | 4.8 | 0.3 | 2.2 | 5.3 | 3 | 2.9 | 2 | 4.2 | 3.4 | 0 | 0 | 6 | 0.8
CCCN(CCC)C(=O)C1=Cc2ccc(-c3ccc(C(=O)N4CCCC4)cc3)cc2N=C(N)C1 [Motolimod] | 0 | 0 | 0 | 0.3 | 2.5 | 0 | 0 | 0 | 0 | 1.6 | 0.4 | 0 | 0 | 0.1 | 0
Cc1ccc(C(=O)Nc2cccc(C(F)(F)F)c2)cc1Nc1nc(-c2cccnc2)nc2c1cnn2C [NVP-BHG712] | 5.2 | 4.7 | 3.4 | 7.3 | 4.8 | 6.2 | 3 | 0 | 4.6 | 3.3 | 1.6 | 3 | 3.3 | 0 | 7.9
CN1C(=O)N[C@H](Cc2c[nH]c3c(Cl)cccc23)C1=O [Necrostatin 2] | 0 | 0 | 0 | 0 | 2.5 | 0 | 0 | 0 | 0.7 | 0 | 0 | 0 | 0 | 0.3 | 0
